In data set [1] the test system is human cytomegalovirus (HCMV) strain AD-169. Kind of data set: Anti-HCMV assay, strain AD169. Format: cell-based. To be noted: in parentheses.
In data set [2] the test system is human cytomegalovirus (HCMV) strain Davis. Kind of data set: Anti-HCMV assay, strain Davis. It counts as cell-based. To be noted: in parentheses.
The nature of a further data set: in vitro. Conditions: human.
For data set [3], the target named is wild-type HIV-1 reverse transcriptase (Human immunodeficiency virus type 1 group M subtype B, UniProt P04585). Kind of data set: RT enzyme assay, wild-type RT. Format: biochemical.
A further data set has as its system HIV-1 (IIIB) wild type. The data set is described as follows: Anti-HIV assay in MT-4 cell cultures. To be noted: MT-4 cells.
Another data set addresses HIV-1 RT K103N (Human immunodeficiency virus type 1 group M subtype B, UniProt P04585, K690N). The data set is described as follows: biochemical.
A further data set deals with HIV-1 RT K103N/Y181C (Human immunodeficiency virus type 1 group M subtype B, UniProt P04585, K690N/Y768C). The data set is described as follows: biochemical.

One may read the pKi as the Ki on a negative log10 scale, so that one unit is a factor of ten. Read a high pKi as a low Ki.

SMILES strings stand for the structures. pKi: −log10 of the molar value.

On to `Nc1ccn(C[C@@H](CO)OCP(=O)(O)O)c(=O)n1.O.O` [Cidofovir, reference compound], for which the results for the SI in data set [1] and in data set [2] were 64 and 63, respectively. Moreover, the CC50 in “in vitro” is 63 µM.
On to `Cc1ccccc1OCCn1ccc(=O)n(Cc2ccccc2)c1=O` [Compound 5, 3-Benzyl-1-[2-(2-methylphenoxy)ethyl]uracil], for which, in data set [3], the pKi is under 4.00.
As to `Cc1cccc(OCCn2ccc(=O)n(Cc3ccccc3)c2=O)c1` [Compound 6, 3-Benzyl-1-[2-(3-methylphenoxy)ethyl]uracil], the pKi in data set [3] is under 4.00.
`Cc1ccc(OCCn2ccc(=O)n(Cc3ccccc3C)c2=O)cc1` [Compound 15, 3-(2-Methylbenzyl)-1-[2-(4-methylphenoxy)ethyl]uracil] had a pKi in data set [3] of under 4.00.
For `Cc1ccc(OCCn2ccc(=O)n(Cc3cccc(C)c3)c2=O)cc1` [Compound 16, 3-(3-Methylbenzyl)-1-[2-(4-methylphenoxy)ethyl]uracil], the “SI, selectivity index, ratio CC50/IC50” value with HIV-1 (IIIB) wild type is given as “⩾11”.
For the compound `Cc1ccc(OCCn2ccc(=O)n(Cc3cc(C)cc(C)c3)c2=O)cc1` [Compound 19, 1-[2-(4-Methylphenoxy)ethyl]-3-(3,5-dimethylbenzyl)uracil], the pKi on HIV-1 RT K103N and on HIV-1 RT K103N/Y181C was under 4.59 in each case.
For the compound `Cc1ccc(OCCn2ccc(=O)n(Cc3c(C)cc(C)cc3C)c2=O)cc1` [Compound 20, 1-[2-(4-Methylphenoxy)ethyl]-3-(2,4,6-trimethylbenzyl)-uracil], the pKi in data set [3] was under 4.00.
`Cc1cc(C)cc(Cn2c(=O)ccn(C/C=C/c3ccccc3)c2=O)c1` [Compound 30, 1-Cinnamyl-3-(3,5-dimethylbenzyl)uracil]: at HIV-1 RT K103N/Y181C, the pKi is under 4.00.
With `O=c1ccn(C/C=C/c2ccccc2)c(=O)n1Cc1cc(F)cc(F)c1` [Compound 31, 1-Cinnamyl-3-(3,5-difluorobenzyl)uracil], the SI in data set [1] was found to be 1.38; in data set [2] it was 1.13. In addition, in “in vitro”, the CC50 was found to be 51 µM.
With `O=c1ccn(C/C=C/c2ccccc2)c(=O)n1Cc1cc(Cl)cc(Cl)c1` [Compound 32, 1-Cinnamyl-3-(3,5-dichlorobenzyl)uracil], at HIV-1 RT K103N/Y181C, the pKi is under 4.00. Besides, the SI worked out at 11 in data set [1] and 9 in data set [2]. Further, the CC50 in “in vitro” was at least 100 µM.
In turn, `O=c1ccn(C/C=C/c2ccccc2)c(=O)n1Cc1cc(Br)cc(Br)c1` [Compound 33, 1-Cinnamyl-3-(3,5-dibromobenzyl)uracil] gave a pKi at HIV-1 RT K103N/Y181C of under 4.00.
Turning to `Cc1cc(Br)cc(Cn2c(=O)ccn(C/C=C/c3ccccc3)c2=O)c1` [Compound 34, 3-(3-Bromo-5-methylbenzyl)-1-cinnamyluracil], the SI in data set [1] is listed as 6; in data set [2], 5. This compound also had a CC50 in the data set “in vitro” of at least 100 µM.
The like results for `O=c1ccn(C/C=C/c2ccccc2)c(=O)n1Cc1cccc2ccccc12` [Compound 35, 1-Cinnamyl-3-(1-naphthylmethyl)uracil] were, in that order, 7, 16 and at least 100 µM.
`Nc1nc2c(ncn2COC(CO)CO)c(=O)[nH]1` [Ganciclovir, reference compound]: the SI in data set [1] is 21; in data set [2], 23. The CC50 in “in vitro” was 132 µM.

The values are drawn from publication PMC7125863 (Bioorganic & Medicinal Chemistry, 2013).
